Results from US20060018978A1, “Botanical compositions having hypoglycemic, hypolipidemic and antimicrobial activities for maintaining good health in normal person and diabetic patient” (priority 2004, published 2006).

What was measured:
[1] = tested on: Klebsiella pneumoniae ATCC 10031; assay: Agar Diffusion Test, K. pneumoniae; assay type: cell-based; settings: mean ± S.E.M
Excerpt: (§1) The dried plant extract is ground to fine powder and sieved to obtain uniform powder size and used for pharmaceutical preparation. […] (1991) Antibiotics in Laboratory Medicine, 3rd ed. The pathogenic microbes inhibited by the crude water extract of M. coromandelianum are Staphylococcus aureus, and Salmonella typhimurium. […] [table]

[2] = tested on: Pseudomonas aeruginosa ATCC 9721; assay: Agar Diffusion Test, Ps. aeruginosa; assay type: cell-based; settings: mean ± S.E.M
Excerpt: as §1

[3] = tested on: Escherichia coli ATCC 25922; assay: Agar Diffusion Test, E. coli; assay type: cell-based; settings: mean ± S.E.M
Excerpt: as §1

[4] = tested on: Salmonella typhimurium ATCC 14028; assay: Agar Diffusion Test, S. typhimurium; assay type: cell-based; settings: mean ± S.E.M
Excerpt: as §1

[5] = tested on: Staphylococcus aureus ATCC 6538P; assay: Agar Diffusion Test, S. aureus; assay type: cell-based; settings: mean ± S.E.M
Excerpt: as §1

[6] = tested on: streptozotocin-induced diabetic rats; assay: Biochemical analysis of serum in diabetic rats at day 14 after daily feeding; assay type: in vivo, rat; settings: day 14, Standard: injected 5 IU/Kg/day, mean ± S.E.M.

## Gentamicin
[1]; 10 μg/ml
  Diameter of inhibition zone: 16.9 ± 0.00 mm
[1]; 20 μg/ml
  Diameter of inhibition zone: 26.57 ± 0.28 mm
[2]; 10 μg/ml
  Diameter of inhibition zone: 8.1 ± 0.00 mm
[2]; 20 μg/ml
  Diameter of inhibition zone: 12.8 ± 0.14 mm
[3]; 10 μg/ml
  Diameter of inhibition zone: 1.56 ± 0.07 mm
[3]; 20 μg/ml
  Diameter of inhibition zone: 3.78 ± 0.07 mm
[4]; 10 μg/ml
  Diameter of inhibition zone: 14.28 ± 0.07 mm
[4]; 20 μg/ml
  Diameter of inhibition zone: 15.88 ± 0.141 mm
[5]; 10 μg/ml
  Diameter of inhibition zone: 10.00 ± 0.00 mm
[5]; 20 μg/ml
  Diameter of inhibition zone: 12.77 ± 0.14 mm

## Insulin
[6]
  Cholesterol: 225.96 ± 5.51 mg %
  Glucose: 409.85 ± 12.52 mg %
  Triglycerides: 388.10 ± 61.85 mg %
